Assay results as given in publication PMC5177923 (2016).

Key:
[1] = test system: hTeloCFRET (DNA, i motif) TAACCCTAACCCTAACCCTAACCC; assay: FRET melting; settings: 100 mM NaCl; 10 mM sodium cacodylate pH 6; 10 μM compound, 200 nM DNA
[2] = test system: hTeloGFRET (DNA, G4) GGGTTAGGGTTAGGGTTAGGG; assay: FRET melting; settings: 100 mM NaCl; 10 mM sodium cacodylate pH 7.4; 10 μM compound, 200 nM DNA
[3] = test system: hTeloC (DNA, i motif) TAACCCTAACCCTAACCCTAACCC; assay: circular dichroism; settings: 100 mM NaCl; 10 mM sodium cacodylate pH 5.5, 20 °C
[4] = test system: DSFRET (DNA, hairpin, HEG(18) linker (non-nucleotide) between 10 and 11) TATAGCTATATATAGCTATA; assay: FRET melting; settings: 100 mM NaCl; 10 mM sodium cacodylate pH 7.4; 10 μM compound, 200 nM DNA
[5] = test system: DSBiotin (DNA, duplex) GGCATAGTGCGTGGGCGTTAGC/GCTAACGCCCACGCACTATGCC; assay: SPR, equilibrium affinity fit, 1:1 model; settings: 100 mM NaCl; 10 mM sodium cacodylate pH 5.5, 0.05% Tween-20, 5% DMSO, 25 °C
[6] = test system: c-mycBiotin (DNA, i motif) CCTTCCCCACCCTCCCCACCCTCCCCA; assay: SPR, equilibrium affinity fit, 1:1 model; settings: 100 mM NaCl; 10 mM sodium cacodylate pH 5.5, 0.05% Tween-20, 5% DMSO, 25 °C
[7] = test system: hTeloCBiotin (DNA, i motif) TAACCCTAACCCTAACCCTAACCC; assay: SPR, equilibrium affinity fit, 1:1 model; settings: 100 mM NaCl; 10 mM sodium cacodylate pH 5.5, 0.05% Tween-20, 5% DMSO, 25 °C

| ΔTm [1] | ΔTm [2] | binding [3] | ∆Tm [2] | ∆Tm [4] | Kd [5] | Kd [6] | Kd [7] | SMILES |
| --- | --- | --- | --- | --- | --- | --- | --- | --- |
| +17 °C | +0.4 °C | – | – | – | – | – | – | CN(C)CCNc1cccc2c1C(=O)c1cccc(NCCNc3ccccc3)c1C2=O |
| – | – | yes | +16 °C | +6.4 °C | ~ 71 ± 22 μM | 12 ± 3 µM | 12 ± 3 µM | O=C1c2c(O)ccc(O)c2C(=O)c2c(NCCNCCO)ccc(NCCNCCO)c21 |
